Data from patent US6365634B1, “Naturally occurring compounds and their derivatives as cyclooxygenase 2 and/or 5-lipoxygenase inhibitors” (C-P Technology Limited Partnership, priority 1997, dated 2002).

Test system: human keratinocyte LTB4 production
Assay: Cell-based 5-LO assay: LTB4 production by cultured human keratinocytes (enzyme immunoassay)
Conditions: 5, 1.0, 0.2 and 0.04 uM, 24 hours, high calcium medium
Source text: In addition to assessing the effect of dehydroabietic acid methyl ester on the production of PGE2 by human keratinocytes, the human keratinocyte culture system was also used to assess for the inhibition of LTB4 production. Keratinocytes have not been used as extensively as other cell types for 5-LO studies, however, human keratinocytes produce appreciable amounts of LTB4 and production of this eicosanoid by cultured keratinocytes is inhibited by known inhibitors of 5-LO (see FIG. 11). To assess for inhibition of LTB4 production, human keratinocytes were cultured as described above. Following introduction of the high calcium media, the identical dilution series of dehydroabietic acid methyl ester as described above in the PGE2 study was added to duplicate wells of keratinocytes. Twenty-four hours later culture media samples were removed from each well and the amount of LTB4 in each sample determined using an enzyme immunoassay specific for LTB4 (Cayman Chemical). As was done with the PGE2 assay described above, the percent inhibition was calculated based on a comparison between vehicle treated control cultures and cultures treated with dehydroabietic acid methyl ester or Rev 5901 (a specific 5-LO inhibitor; Cayman Chemical).

COC(=O)[C@]1(C)CCC[C@]2(C)c3ccc(C(C)C)cc3CC[C@@H]12 [Dehydroabietic acid methyl ester, dehydroabietic acid methyl ester]
inhibition of LTB4 production by cultured human keratinocytes: inhibited the production of LTB4 by cultured human keratinocytes in a dose-dependent manner
